Each structure is given as a SMILES string.

For the assay, the target named is TRPV3 (mTRPV3) (Mus musculus, UniProt Q8K424). The assay is described as follows: cell-based.
Sequence of TRPV3 (mTRPV3) (Q8K424 whole entry): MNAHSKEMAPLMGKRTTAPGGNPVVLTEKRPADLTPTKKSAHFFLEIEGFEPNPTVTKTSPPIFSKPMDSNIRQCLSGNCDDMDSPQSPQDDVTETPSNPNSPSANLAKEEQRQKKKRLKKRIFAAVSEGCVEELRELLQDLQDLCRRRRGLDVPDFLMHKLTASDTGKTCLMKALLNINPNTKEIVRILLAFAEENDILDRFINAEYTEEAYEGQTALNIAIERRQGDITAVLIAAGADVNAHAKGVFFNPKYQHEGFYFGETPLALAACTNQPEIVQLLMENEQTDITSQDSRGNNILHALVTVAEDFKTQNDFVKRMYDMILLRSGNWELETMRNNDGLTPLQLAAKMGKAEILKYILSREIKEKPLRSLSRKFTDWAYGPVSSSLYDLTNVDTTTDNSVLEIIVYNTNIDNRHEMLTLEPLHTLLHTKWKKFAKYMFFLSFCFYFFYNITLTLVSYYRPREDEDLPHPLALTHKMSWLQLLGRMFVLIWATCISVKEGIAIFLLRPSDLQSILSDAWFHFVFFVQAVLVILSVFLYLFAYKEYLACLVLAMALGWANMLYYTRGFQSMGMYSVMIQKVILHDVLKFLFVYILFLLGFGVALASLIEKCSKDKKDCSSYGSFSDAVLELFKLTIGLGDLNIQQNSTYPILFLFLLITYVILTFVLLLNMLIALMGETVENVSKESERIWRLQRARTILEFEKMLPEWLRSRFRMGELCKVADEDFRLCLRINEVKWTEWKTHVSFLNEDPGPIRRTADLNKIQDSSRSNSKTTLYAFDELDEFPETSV

`NCCOB(c1ccccc1)c1ccccc1` [2-APB] had a 50% effective concentration (EC50) of 57.4 ± 3.2 µM.

These data come from article PMC10359276, “Involvement of skin TRPV3 in temperature detection regulated by TMEM79 in mice” (Nature Communications, 2023).
